≈ marks a conversion by molar mass, not a printed value. Where two headings read alike, the source gives them in different places.
Assays:
Ba. fragilis = assay: MIC against human normal gut microbiota: Bacteroides fragilis; assay type: cell-based
From the text: (§1) The activity of the selected lactones against the human gut microbiota was also examined. Microbiota interfere with C. difficile's ability to colonize the gastrointestinal tract and subsequently cause infection. Many antibiotics inhibit/kill the endogenous microflora, which permits enhanced colonization by C. difficile and infection. Three different bacterial species that are present in the gut microflora were used in this experiment; Bifidobacterium (anaerobic Gram-positive bacteria), Bacteroides (anaerobic Gram-negative bacteria) and Lactobacillus (microaerophilic Gram-positive bacteria). Ideal compounds/drugs are those with selective antibacterial activity against C. difficile so as to protect the indigenous microflora present in the GI tract from being damaged/killed (which will exacerbate infections caused by C. difficile).
(§2) Bifidobacterium and Bacteroides were first grown for 48 hours at 37° C., anaerobically, using brain heart infusion supplemented (BHIS) agar (brain heart infusion agar supplemented with hemin, vitamin K and L-cysteine). Lactobacillus was cultivated on MRS agar and incubated in the presence of 5% CO2 for 48 hours at 37° C. Each bacterium was suspended in phosphate-buffered saline (PBS) to achieve 0.5 McFarland standard and subsequently diluted in brain heart infusion supplemented broth (for Bifidobacterium and Bacteroides) or in MRS broth (for Lactobacillus) to achieve a bacterial inoculum of approximately 5×10^5 CFU/mL. Bacteria were then seeded in 96-well plates containing serial dilutions of the compounds and incubated for 48 hours. MICs reported in Table 4 are the minimum concentration of compound/control drug that inhibited the visual growth of bacteria.

L. crispatus = assay: MIC against human normal gut microbiota: L. crispatus; assay type: cell-based, Lactobacillus crispatus
From the text: as §1, §2

Bi. breve = assay: MIC against human normal gut microbiota: Bifidobacterium breve; assay type: cell-based
From the text: as §1, §2

L. reuteri = assay: MIC against human normal gut microbiota: L. reuteri; assay type: cell-based, Lactobacillus reuteri
From the text: as §1, §2

L. casei = assay: MIC against human normal gut microbiota: L. casei; assay type: cell-based, Lactobacillus casei
From the text: as §1, §2

Ba. dorsei = assay: MIC against human normal gut microbiota: Bacteroides dorsei; assay type: cell-based
From the text: as §1, §2

[1] = tested on: hypervirulent Clostridioides difficile strains; assay: MIC against hypervirulent Clostridioides difficile strains; assay type: cell-based
Method: (§3) The antibacterial activity of compounds 48, 50, 51, 61 and 85 against a panel of Clostridioides difficile strains was evaluated. A bacterial solution equivalent to 0.5 McFarland standard was prepared and diluted in brain heart infusion broth supplemented with hemin and vitamin K. Compounds and control drugs were added in the first row of 96-well plates and serially diluted with media containing bacteria (to achieve a concentration gradient ranging from 128 to 1 μg/mL). Plates were then incubated anaerobically at […] for 48 hours.

L. gasseri = assay: MIC against human normal gut microbiota: L. gasseri; assay type: cell-based, Lactobacillus gasseri
From the text: as §1, §2

C. albicans = assay: Broth microdilution against Candida albicans; assay type: cell-based; settings: gradient 128 to 1 μg/mL, 24 hours
Method: (§4) Method: The minimum inhibitory concentration (MIC) of the compounds and control drugs, linezolid (antibiotic), vancomycin (antibiotic), 5-fluorocytosine (5-FC, antifungal drug), and fluconazole (antifungal drug) was determined using the broth microdilution method according to the guidelines outlined by the Clinical and Laboratory Standards Institute (CLSI) against clinically relevant bacterial (methicillin-resistant Staphylococcus aureus (MRSA), vancomycin-resistant Enterococcus faecalis (VRE), vancomycin-resistant Enterococcus faecium (VRE), Clostridioides difficile and Escherichia coli) and fungal (Candida albicans) strains. A solution equivalent to 0.5 McFarland standard was prepared from each strain and diluted in cation-adjusted Mueller-Hinton broth (for S. aureus and E. coli), tryptone soy broth (for E. faecalis), or brain heart infusion broth (for E. faecium) to achieve a bacterial inoculum of about 5×10^5 CFU/mL. C. difficile strains were cultured in brain heart infusion broth supplemented with hemin and vitamin K. C. albicans was diluted in RPMI medium supplemented with 3-(N-morpholino) propanesulfonic acid to achieve a fungal concentration of about 1.5×10^3 CFU/mL. Compounds and control drugs were added in the first row of the 96-well plates and diluted with media containing bacteria (to achieve a concentration gradient ranging from 128 to 1 μg/mL). For MRSA, VRE, and E. coli strains, plates were then incubated aerobically at 37° C. for at least 18 hours. C. albicans was incubated aerobically at 37° C. for 24 hours. Plates containing C. difficile were incubated anaerobically at […] for 48 hours.

MRSA (USA300) = assay: microbe, parasite or virus in culture; assay type: cell-based, Staphylococcus aureus
Method: as §4

E. faecium = assay: Broth microdilution against vancomycin-resistant E. faecium; assay type: cell-based, Enterococcus faecium; settings: gradient 128 to 1 μg/mL
Method: as §4

[2] = tested on: clinically important Clostridioides difficile strains; assay: MIC against clinically important Clostridioides difficile strains; assay type: cell-based
Method: as §3

Bi. longum = assay: MIC against human normal gut microbiota: Bifidobacterium longum; assay type: cell-based
From the text: as §1, §2

Clostridioides difficile = assay: MIC by broth microdilution against Clostridioides difficile (Table 1); assay type: cell-based
Method: as §4

E. faecalis (VRE) = assay: microbe, parasite or virus in culture; assay type: cell-based, Enterococcus faecalis; settings: aerobic, 37° C., at least 18 hours
Method: as §4

E. coli (TolC mutant) = assay: MIC by broth microdilution against E. coli (TolC mutant); assay type: cell-based, Escherichia coli; settings: aerobic, 37° C., at least 18 hours
Method: as §4

C=C1C(=O)O[C@H](c2ccccc2O)[C@@H]1c1cccc(C#N)c1 (racemic) [Compound 50]
MIC (Ba. fragilis; Ba. fragilis HM 709): >128 µg/mL
MIC (Ba. fragilis; Ba. fragilis HM 710): >128 µg/mL
MIC (Ba. fragilis; Ba. fragilis HM 711): >128 µg/mL
MIC (Ba. fragilis; Ba. fragilis HM 714): >128 µg/mL
MIC (L. crispatus; L. crispatus HM 375): >128 µg/mL
MIC (L. crispatus; L. crispatus HM 421): >128 µg/mL
MIC (Bi. breve; Bi. breve HM 856): >128 µg/mL
MIC (L. reuteri; L. reuteri HM 120): >128 µg/mL
MIC (L. casei; L. casei HM 334): >128 µg/mL
MIC (Ba. dorsei; Ba. dorsei HM 29): >128 µg/mL
MIC (Ba. dorsei; Ba. dorsei HM 717): >128 µg/mL
MIC ([1]; CD strain 81): >128 µg/mL
MIC ([1]; CD strain 82): 64 µg/mL (≈ 220 µM)
MIC ([1]; CD strain 83): 128 µg/mL (≈ 439 µM)
MIC ([1]; CD strain 84): >128 µg/mL
MIC ([1]; CD strain 85): >128 µg/mL
MIC ([1]; CD strain 86): 128 µg/mL (≈ 439 µM)
MIC ([1]; CD strain 87): 128 µg/mL (≈ 439 µM)
MIC ([1]; CD strain 90): 128 µg/mL (≈ 439 µM)
MIC ([1]; CD strain 49279): >128 µg/mL
MIC ([1]; CD strain 49287): 128 µg/mL (≈ 439 µM)
MIC ([1]; CD strain 49291): 64 µg/mL (≈ 220 µM)
MIC (L. gasseri; L. gasseri HM 407): >128 µg/mL
activity against C. albicans (C. albicans): inactive
MIC MRSA (USA300) (MRSA (USA300); aerobic, 37° C., at least 18 hours): >128 µg/mL
inhibition of the tested strains of E. faecium (E. faecium): did not inhibit
MIC ([2]; CD strain 16): 128 µg/mL (≈ 439 µM)
MIC ([2]; CD strain 18): 32 µg/mL (≈ 110 µM)
MIC ([2]; CD strain 19): 128 µg/mL (≈ 439 µM)
MIC ([2]; CD strain 1801): 128 µg/mL (≈ 439 µM)
MIC ([2]; CD strain 43255): 16 µg/mL (≈ 54.9 µM)
MIC ([2]; CD strain P6): 128 µg/mL (≈ 439 µM)
MIC ([2]; CD strain P7): 128 µg/mL (≈ 439 µM)
MIC ([2]; CD strain P13): 32 µg/mL (≈ 110 µM)
MIC ([2]; CD strain P19): 32 µg/mL (≈ 110 µM)
MIC (Bi. longum; Bi. longum HM 848): >128 µg/mL
MIC Clostridioides difficile (Clostridioides difficile; anaerobic, 48 hours, strain BAA-1870): 8 µg/mL (≈ 27.5 µM)
MIC E. faecalis (VRE) (E. faecalis (VRE)): >128 µg/mL
MIC E. coli (TolC mutant) (E. coli (TolC mutant)): >128 µg/mL

CN[C@H](CC(C)C)C(=O)N[C@H]1C(=O)N[C@@H](CC(N)=O)C(=O)N[C@H]2C(=O)N[C@H]3C(=O)N[C@H](C(=O)N[C@H](C(=O)O)c4cc(O)cc(O)c4-c4cc3ccc4O)[C@H](O)c3ccc(c(Cl)c3)Oc3cc2cc(c3O[C@@H]2O[C@H](CO)[C@@H](O)[C@H](O)[C@H]2O[C@H]2C[C@](C)(N)[C@H](O)[C@H](C)O2)Oc2ccc(cc2Cl)[C@H]1O [Vancomycin, reference compound]
MIC (Ba. fragilis; Bacteroides fragilis, Ba. fragilis HM 710): 16 µg/mL (≈ 11 µM)
MIC (Ba. fragilis; Bacteroides fragilis, Ba. fragilis HM 711): 16 µg/mL (≈ 11 µM)
MIC (Ba. fragilis; Bacteroides fragilis, Ba. fragilis HM 714): 16 µg/mL (≈ 11 µM)
MIC (Ba. fragilis; Bacteroides fragilis, Ba. fragilis HM 709): 64 µg/mL (≈ 44.2 µM)
MIC (L. crispatus; L. crispatus HM 375): ≤1 µg/mL
MIC (L. crispatus; Lactobacillus crispatus): ≤ 1 µg/mL
MIC (Bi. breve; Bifidobacterium breve): ≤ 1 µg/mL
MIC (L. reuteri; Limosilactobacillus reuteri): > 128 µg/mL
MIC (L. casei; Lacticaseibacillus casei): > 128 µg/mL
MIC (Ba. dorsei; Bacteroides, Ba. dorsei HM 717): 8 µg/mL (≈ 5.52 µM)
MIC (Ba. dorsei; Bacteroides, Ba. dorsei HM 29): 128 µg/mL (≈ 88.3 µM)
MIC ([1]; Clostridioides difficile, CD strain 81): 0.25 µg/mL (≈ 0.173 µM)
MIC ([1]; Clostridioides difficile, CD strain 82): 0.5 µg/mL (≈ 0.345 µM)
MIC ([1]; Clostridioides difficile, CD strain 83): 0.5 µg/mL (≈ 0.345 µM)
MIC ([1]; Clostridioides difficile, CD strain 84): 0.25 µg/mL (≈ 0.173 µM)
MIC ([1]; Clostridioides difficile, CD strain 85): 2 µg/mL (≈ 1.38 µM)
MIC ([1]; Clostridioides difficile, CD strain 86): 0.5 µg/mL (≈ 0.345 µM)
MIC ([1]; Clostridioides difficile, CD strain 87): 0.5 µg/mL (≈ 0.345 µM)
MIC ([1]; Clostridioides difficile, CD strain 90): 1 µg/mL (≈ 0.69 µM)
MIC ([1]; Clostridioides difficile, CD strain 49279): 1 µg/mL (≈ 0.69 µM)
MIC ([1]; Clostridioides difficile, CD strain 49287): 0.25 µg/mL (≈ 0.173 µM)
MIC ([1]; Clostridioides difficile, CD strain 49291): 0.25 µg/mL (≈ 0.173 µM)
MIC (L. gasseri; Lactobacillus gasseri): > 128 µg/mL
MIC (MRSA (USA300); Staphylococcus aureus, 18 h, read-out: MIC MRSA (USA300)): 1 µg/mL (≈ 0.69 µM)
MIC ([2]; Clostridioides difficile, CD strain 16, read-out: MIC): 1 µg/mL (≈ 0.69 µM)
MIC ([2]; Clostridioides difficile, CD strain 18, read-out: MIC): 0.5 µg/mL (≈ 0.345 µM)
MIC ([2]; Clostridioides difficile, CD strain 19, read-out: MIC): 1 µg/mL (≈ 0.69 µM)
MIC ([2]; Clostridioides difficile, CD strain 1801, read-out: MIC): 1 µg/mL (≈ 0.69 µM)
MIC ([2]; Clostridioides difficile, CD strain 43255, read-out: MIC): 1 µg/mL (≈ 0.69 µM)
MIC ([2]; Clostridioides difficile, CD strain P6, read-out: MIC): 1 µg/mL (≈ 0.69 µM)
MIC ([2]; Clostridioides difficile, CD strain P7, read-out: MIC): 1 µg/mL (≈ 0.69 µM)
MIC ([2]; Clostridioides difficile, CD strain P13, read-out: MIC): 1 µg/mL (≈ 0.69 µM)
MIC ([2]; Clostridioides difficile, CD strain P19, read-out: MIC): 1 µg/mL (≈ 0.69 µM)
MIC (Bi. longum; Bifidobacterium longum): 64 µg/mL (≈ 44.2 µM)
MIC (Clostridioides difficile; Clostridioides difficile, BAA1870, 48 h, read-out: MIC Clostridioides difficile): 1 µg/mL (≈ 0.69 µM)
